We go through 34 molecules from patent US11033547B2, “Carboxamide-pyrimidine derivatives as SHP2 antagonists” (Merck Patent GmbH, priority 2019, dated 2021).

By IC50 is commonly meant the concentration that gives 50% inhibition.

Each structure is given as a SMILES string.

Full length SHP2 protein (Recombinant Human SHP-2), sequence (Q06124 2-593 limits assumed): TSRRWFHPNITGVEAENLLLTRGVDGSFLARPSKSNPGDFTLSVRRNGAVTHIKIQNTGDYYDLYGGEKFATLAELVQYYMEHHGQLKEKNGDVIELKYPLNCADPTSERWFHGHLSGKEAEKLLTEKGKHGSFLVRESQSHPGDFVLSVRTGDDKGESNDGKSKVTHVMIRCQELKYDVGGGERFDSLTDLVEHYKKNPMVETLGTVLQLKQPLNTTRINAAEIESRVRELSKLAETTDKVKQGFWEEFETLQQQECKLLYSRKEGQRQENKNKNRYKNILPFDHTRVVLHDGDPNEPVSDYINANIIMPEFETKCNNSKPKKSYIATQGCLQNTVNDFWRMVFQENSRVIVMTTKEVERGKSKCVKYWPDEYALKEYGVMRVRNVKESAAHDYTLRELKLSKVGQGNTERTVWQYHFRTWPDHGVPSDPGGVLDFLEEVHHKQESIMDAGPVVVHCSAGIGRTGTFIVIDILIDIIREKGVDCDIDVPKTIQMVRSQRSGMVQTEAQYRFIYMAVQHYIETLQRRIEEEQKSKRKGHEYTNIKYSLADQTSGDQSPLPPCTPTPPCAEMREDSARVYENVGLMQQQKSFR

This assay concerns the target Full length SHP2 protein (Recombinant Human SHP-2) (Homo sapiens, UniProt Q06124). As to the kind of experiment: SHP2 biochemical assay (DiFMUP substrate, activating peptide IRSI_2pY). Particulars: DiFMUP substrate, activating peptide IRSI_2pY, 60 min at RT; read-out: SHP-2 Biochemical assay IC50. Here is the method:
The inhibition of SHP2 by compounds of the invention was monitored using the surrogate substrate DiFMUP after protein activation by a peptide bearing two appropriately spaced phosphotyrosine. […] The generation of the DiFMU product by activated SHP2 was monitored through Fluorescence measurement with a PerkinElmer Envision reader.
The inhibitor dose response curves were analyzed with Genedata Screener.
Turning to `NC(=O)c1nc(N[C@@H]2CCNC[C@@H]2F)nc(N)c1-c1cccc(Cl)c1Cl` (atropisomer, axis not shown; (M)) [Compound 64, (5M)-6-amino-5-(2,3-dichlorophenyl)-2-{[(3S,4R)-3-fluoropiperidin-4-yl]amino}-pyrimidine-4-carboxamide], the IC50 amounted to 10 µM.
`CC1(N)CCN(c2nc(Cl)c(-c3cccc(Cl)c3Cl)c(C(N)=O)n2)CC1` (atropisomer, axis not shown; (M)) [Compound 78, (4M)-2-(4-amino-4-methylpiperidin-1-yl)-6-chloro-5-(2,3-dichlorophenyl)-pyrimidine-4-carboxamide]: the IC50 is 1.4 µM.
As to `Cc1nc(N[C@H]2CCC[C@@H](N)C2)nc(C(N)=O)c1-c1cccc(Cl)c1Cl` (atropisomer, axis not shown; (M)) [Compound 87, (4M)-2-{[(1S,3R)-3-aminocyclohexyl]amino}-5-(2,3-dichlorophenyl)-6-methylpyrimidine-4-carboxamide], the IC50 was determined as 1.2 µM.
The same measure for `NC[C@@]12CCC[C@@H]1CN(c1nc(N)c(-c3cccc(Cl)c3Cl)c(C(N)=O)n1)C2` (atropisomer, axis not shown; (M)) [Compound 99, (5M)-2-[(3aR,6aS)-3a-(aminomethyl)octahydrocyclopenta[c]pyrrol-2-yl]-6-amino-5-(2,3-dichlorophenyl)pyrimidine-4-carboxamide]: 3.7 µM; for `NC(=O)c1nc(N2CCC(N)(C(F)F)CC2)nc(N)c1-c1cccc(Cl)c1Cl` (atropisomer, axis not shown; (M)) [Compound 107, (5M)-6-amino-2-[4-amino-4-(difluoromethyl)piperidin-1-yl]-5-(2,3-dichlorophenyl)-pyrimidine-4-carboxamide]: 3.2 µM.
Take `C[C@]1(N)CCCN(c2nc(N)c(-c3cccc(Cl)c3Cl)c(C(N)=O)n2)CC1` (atropisomer, axis not shown; (M)) [Compound 110, (5M)-6-amino-2-[(4S)-4-amino-4-methylazepan-1-yl]-5-(2,3-dichlorophenyl)-pyrimidine-4-carboxamide]: the IC50 was found to be 4.4 µM.
For the molecule `COc1c(F)ccc(-c2c(C)nc(N3CCC(C)(N)CC3)nc2C(N)=O)c1Cl` (atropisomer, axis not shown; (M)) [Compound 115, (4M)-2-(4-amino-4-methylpiperidin-1-yl)-5-(2-chloro-4-fluoro-3-methoxyphenyl)-6-methylpyrimidine-4-carboxamide], the IC50 stood at 0.57 µM.
For the molecule `Cc1nc(N2CCC(C)(N)CC2)nc(C(N)=O)c1-c1cccc(Cl)c1Cl` (atropisomer, axis not shown; (P)) [Compound 31, (4P)-2-(4-amino-4-methylpiperidin-1-yl)-5-(2,3-dichlorophenyl)-6-methylpyrimidine-4-carboxamide], the IC50 stood at 7.9 µM.
Next, `Cc1nc(N2CCOC[C@H]2CN)nc(C(N)=O)c1-c1cccc(Cl)c1Cl` (atropisomer, axis not shown; (P)) [Compound 47, (4P)-2-[(3R)-3-(aminomethyl)morpholin-4-yl]-5-(2,3-dichlorophenyl)-6-methylpyrimidine-4-carboxamide]: greater than 10 µM; `Cc1nc(N2CCOC[C@@H]2CN)nc(C(N)=O)c1-c1cccc(Cl)c1Cl` (atropisomer, axis not shown; (P)) [Compound 48, (4P)-2-[(3S)-3-(aminomethyl)morpholin-4-yl]-5-(2,3-dichlorophenyl)-6-methylpyrimidine-4-carboxamide]: greater than 10 µM; `Cc1nc(N[C@@H]2CCC[C@H](N)C2)nc(C(N)=O)c1-c1cccc(Cl)c1Cl` (atropisomer, axis not shown; (P)) [Compound 89, (4P)-2-{[(1R,3S)-3-aminocyclohexyl]amino}-5-(2,3-dichlorophenyl)-6-methylpyrimidine-4-carboxamide]: 13 µM.
Next, `Cc1nc(N[C@H]2CCC[C@@H](N)C2)nc(C(N)=O)c1-c1cccc(Cl)c1Cl` (atropisomer, axis not shown; (P)) [Compound 90, (4P)-2-{[(1S,3R)-3-aminocyclohexyl]amino}-5-(2,3-dichlorophenyl)-6-methylpyrimidine-4-carboxamide]: greater than 10 µM; `NC(=O)c1nc(N2CCC(N)(C(F)F)CC2)nc(N)c1-c1cccc(Cl)c1Cl` (atropisomer, axis not shown; (P)) [Compound 106, (5P)-6-amino-2-[4-amino-4-(difluoromethyl)piperidin-1-yl]-5-(2,3-dichlorophenyl)-pyrimidine-4-carboxamide]: 15 µM.
For the molecule `C[C@]1(N)CCCN(c2nc(N)c(-c3cccc(Cl)c3Cl)c(C(N)=O)n2)CC1` (atropisomer, axis not shown; (P)) [Compound 108, (5P)-6-amino-2-[(4S)-4-amino-4-methylazepan-1-yl]-5-(2,3-dichlorophenyl)-pyrimidine-4-carboxamide], the IC50 was 1.3 µM.
The same measure for `COc1c(F)ccc(-c2c(C)nc(N3CCC(C)(N)CC3)nc2C(N)=O)c1Cl` (atropisomer, axis not shown; (P)) [Compound 116, (4P)-2-(4-amino-4-methylpiperidin-1-yl)-5-(2-chloro-4-fluoro-3-methoxyphenyl)-6-methylpyrimidine-4-carboxamide]: greater than 10 µM; for `NC(=O)c1nc(N2C[C@H]3CCCCC[C@@H](C2)C3N)nc(N)c1-c1cccc(Cl)c1Cl` (single isomer, unassigned) [Compound 14]: 8.8 µM.
Next, `Cc1nc(N2CCC3(CC2)CO[C@@H](C)[C@H]3N)nc(C(N)=O)c1-c1cccc(Cl)c1Cl` (single isomer, unassigned) [Compound 94]: 2.6 µM; `NC[C@@]12CCCC[C@@H]1CN(c1nc(N)c(-c3cccc(Cl)c3Cl)c(C(N)=O)n1)C2` (single isomer, unassigned) [Compound 102]: 17 µM.
For the molecule `NC[C@]12CCCC[C@H]1CN(c1nc(N)c(-c3cccc(Cl)c3Cl)c(C(N)=O)n1)C2` (single isomer, unassigned) [Compound 103], the IC50 turned out to be 5.6 µM.
The same measure for `NC[C@]12CCC[C@H]1CN(c1nc(N)c(-c3cccc(Cl)c3Cl)c(C(N)=O)n1)C2` (single isomer, unassigned) [Compound 105]: 10 µM; for `Cc1nc(N2CCC3(CCC[C@H]3N)CC2)nc(C(N)=O)c1-c1cccc(Cl)c1Cl` (single isomer, unassigned) [Compound 113]: 0.66 µM.
The same measure for `NC(=O)c1nc(N2CCC3(CC2)Cc2ccccc2[C@H]3N)nc(N)c1-c1cccc(Cl)c1Cl` (single isomer, unassigned) [Compound 118]: 0.041 µM; for `NC(=O)c1nc(N2CCC3(CC2)Oc2ncccc2C3N)nc(N)c1-c1cccc(Cl)c1Cl` (single isomer, unassigned) [Compound 128]: 0.006 µM.
On to `NC(=O)c1nc(N2CCC3(CC2)Oc2ncccc2C3N)nc(N)c1-c1cccc(Cl)c1Cl` (single isomer, unassigned) [Compound 129], for which the IC50 stood at 0.33 µM.
In the case of `NC(=O)c1nc(N2CCC3(CC2)Oc2ncccc2[C@@H]3N)nc(N)c1-c1cccc(Cl)c1Cl` (single isomer, unassigned) [Compound 130], the IC50 turned out to be 0.077 µM.
For `NC(=O)c1nc(N2CCC3(CC2)Oc2ncccc2[C@@H]3N)nc(N)c1-c1cccc(Cl)c1Cl` (single isomer, unassigned) [Compound 131], the IC50 was 7 µM.
The same measure for `Cc1nc(N2CCC3(CCC[C@H]3N)C2)nc(C(N)=O)c1-c1cccc(Cl)c1Cl` (stereo in doubt) [Compound 35, 2-((R)-6-Amino-2-aza-spiro[4.4]non-2-yl)-5-(2,3-dichloro-phenyl)-6-methyl-pyrimidine-4-carboxylic acid amide]: 1.1 µM.
The same measure for `Cc1nc(N2CCC3(CCC[C@@H]3N)C2)nc(C(N)=O)c1-c1cccc(Cl)c1Cl` (stereo in doubt) [Compound 37, 2-((S)-6-Amino-2-aza-spiro[4.4]non-2-yl)-5-(2,3-dichloro-phenyl)-6-methyl-pyrimidine-4-carboxylic acid amide]: 1.1 µM; for `CC1(N)CCN(c2nc(N)c(-c3cccc(F)c3)c(C(N)=O)n2)CC1` [Compound 4, 6-Amino-2-(4-amino-4-methyl-piperidin-1-yl)-5-(3-fluoro-phenyl)pyrimidine-4-carboxylic Acid Amide]: 3.7 µM; for `NC(=O)c1nc(N2CC3CCCC(C2)C3N)nc(N)c1-c1cccc(Cl)c1Cl` (stereo not shown) [Compound 6, 6-amino-2-{9-amino-3-azabicyclo[3.3.1]nonan-3-yl}-5-(2,3-dichlorophenyl)pyrimidine-4-carboxamide]: 2.7 µM.
Consider `CC(C)C1N(c2nc(N)c(-c3cccc(Cl)c3Cl)c(C(N)=O)n2)CC12CC(N)C(O)C2` (stereo not shown) [Compound 10, 6-amino-2-[6-amino-7-hydroxy-1-(propan-2-yl)-2-azaspiro[3.4]octan-2-yl]-5-(2,3-dichlorophenyl)pyrimidine-4-carboxamide], for which the IC50 is 9.6 µM.
For `NCC1CC2CCC(C1)N2c1nc(N)c(-c2cccc(Cl)c2Cl)c(C(N)=O)n1` (stereo not shown) [Compound 12, 6-amino-2-[3-(aminomethyl)-8-azabicyclo[3.2.1]octan-8-yl]-5-(2,3-dichlorophenyl)pyrimidine-4-carboxamide], the half-inhibitory concentration (IC50) was 1.6 µM.
The same measure for `NC(=O)c1nc(N2C[C@H]3CCCCC[C@@H](C2)[C@@H]3N)nc(N)c1-c1cccc(Cl)c1Cl` [Compound 13, 6-amino-5-(2,3-dichlorophenyl)-2-[(1R,7S,11s)-11-amino-9-azabicyclo[5.3.1]undecan-9-yl]pyrimidine-4-carboxamide]: greater than 10 µM; for `CC1(N)CCN(c2nc(N)c(-c3cccc(Cl)c3Cl)c(C(=O)NCCO)n2)CC1` [Compound 17, 6-Amino-2-(4-amino-4-methyl-piperidin-1-yl)-5-(2,3-dichlorophenyl)-pyrimidine-4-carboxylic acid (2-hydroxy-ethyl)-amide]: 12 µM.
